Here are results for 9 compounds from PubChem BioAssay (NCI).

Among the test systems are U251 CNS; OVCAR-4 ovarian; NCI-H23 lung; MDA-MB-435; MCF7 breast; NCI/ADR-RES ovarian; 786-0 renal; K-562 leukemia; A498 renal; UACC-62 melanoma.
Holding throughout (experiment): NCI anticancer screen, dose series, 48 h

The structures appear in SMILES notation.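 These data come from cells grown in 96-well plates and exposed to compound for 48 hours at five concentrations. The concentration for 50% growth inhibition is given as GI50. TGI denotes the concentration required for complete inhibition of growth.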 A value given as a limit tells only on which side of the number the result lay.

Consider `OC(c1ccccc1)c1c(-c2ccccc2)[nH]c(-c2ccccc2)c1C(O)c1ccccc1` (stereo not given), for which the TGI was determined as 18.5 µM in the assay on U251 CNS; 4.82 µM in the assay with OVCAR-4 ovarian; 16.5 µM with NCI-H23 lung; 7.73 µM in the assay with MDA-MB-435; 19.1 µM in the assay with MCF7 breast; 8.02 µM with NCI/ADR-RES ovarian. Also, the TGI in the assay on 786-0 renal was 16.1 µM; in the assay on K-562 leukemia it was 4.64 µM; with A498 renal, 8.73 µM; in the assay with UACC-62 melanoma it was 7.97 µM.
For `CCCCCCCCCCCC1=NC(C)(C)CN1C(C)C`, the GI50 is 3.4 µM with U251 CNS; 4.29 µM in the assay on OVCAR-4 ovarian; 2.98 µM in the assay on NCI-H23 lung; 2 µM in the assay with MDA-MB-435; 2.81 µM in the assay with MCF7 breast; 3.63 µM in the assay on NCI/ADR-RES ovarian. For the same compound, the GI50 in the assay with 786-0 renal was 3.57 µM; in the assay on K-562 leukemia, 1.94 µM; with A498 renal, 4.78 µM; with UACC-62 melanoma, 1.75 µM. Besides, the TGI in the assay on U251 CNS worked out at 12.8 µM; with OVCAR-4 ovarian, 15.9 µM; with NCI-H23 lung, 11.3 µM; in the assay with MDA-MB-435, 5.33 µM; in the assay with MCF7 breast, 8.68 µM; in the assay with NCI/ADR-RES ovarian it was 13.4 µM. The TGI was determined as 13 µM with 786-0 renal, 5.82 µM in the assay with K-562 leukemia, 19.3 µM in the assay on A498 renal and 3.54 µM in the assay on UACC-62 melanoma.
Take `C[C@]12CC[C@H]3[C@@H](CCC4=CC(=O)CC[C@@]43C)[C@]1(O)CC[C@]2(O)C(=O)CO`: the TGI in the assay with U251 CNS, in the assay with OVCAR-4 ovarian, in the assay on NCI-H23 lung, with MDA-MB-435, in the assay with MCF7 breast and with NCI/ADR-RES ovarian was over 100 µM throughout. Besides, the TGI in the assay on 786-0 renal, in the assay with K-562 leukemia, in the assay on A498 renal and with UACC-62 melanoma was over 100 µM in each case.
Consider `O=c1oc2ccccc2cc1P(=O)(O)O`, for which the TGI in the assay on U251 CNS, with OVCAR-4 ovarian, with NCI-H23 lung, in the assay with MDA-MB-435, in the assay on MCF7 breast and with NCI/ADR-RES ovarian was over 100 µM in each case. Moreover, the TGI in the assay on 786-0 renal, in the assay on K-562 leukemia, with A498 renal and with UACC-62 melanoma was over 100 µM in each case.
Regarding `COc1cc(-c2csc(NC(=O)Nc3ccc(Cl)cc3)n2)cc(OC)c1OC`, the GI50 is 3.35 µM in the assay on U251 CNS; 2.89 µM in the assay on OVCAR-4 ovarian; 2.54 µM in the assay with NCI-H23 lung; 2.17 µM in the assay with MDA-MB-435; 2.53 µM in the assay with MCF7 breast; 2.7 µM in the assay with NCI/ADR-RES ovarian. The GI50 in the assay on 786-0 renal was 2.35 µM; with K-562 leukemia, 3.38 µM; with A498 renal, 2.24 µM; in the assay on UACC-62 melanoma, 1.93 µM. The TGI with U251 CNS is 13.1 µM; in the assay with OVCAR-4 ovarian, over 49.6 µM; in the assay on NCI-H23 lung it was 10.9 µM; in the assay with MDA-MB-435, 5.88 µM; with MCF7 breast it was 10.7 µM; in the assay with NCI/ADR-RES ovarian, 8.65 µM. Besides, the TGI in the assay on 786-0 renal is 7.83 µM; in the assay with K-562 leukemia it was over 100 µM; in the assay with A498 renal it was 8.03 µM; in the assay on UACC-62 melanoma, 4.22 µM.
Consider `COc1cc2c(cc1OCCCCCOc1ccc(-c3nc4ccccc4s3)cc1)N=C[C@@H]1CCCN1C2=O`, for which the GI50 was 1.47 µM in the assay on U251 CNS; 3.02 µM with OVCAR-4 ovarian; 2.6 µM with NCI-H23 lung; 10.5 µM in the assay on MDA-MB-435; 1.21 µM with MCF7 breast; 2.55 µM with NCI/ADR-RES ovarian. Besides, the GI50 with 786-0 renal is 1.2 µM; with K-562 leukemia, 0.914 µM; with A498 renal, 5.29 µM; in the assay on UACC-62 melanoma, 3.27 µM. In addition, the TGI in the assay on U251 CNS is 16.1 µM; in the assay with OVCAR-4 ovarian, over 76.5 µM; with NCI-H23 lung it was 10.5 µM; in the assay on MDA-MB-435, 69.2 µM; with MCF7 breast, 9.77 µM; in the assay on NCI/ADR-RES ovarian, 15.6 µM. Besides, the TGI with 786-0 renal came out at 3.63 µM; with K-562 leukemia, 12.2 µM; in the assay on A498 renal, 11.5 µM; in the assay with UACC-62 melanoma, 7.93 µM.
For `CCCN1CCC(Oc2cc(Nc3nc(Nc4cccc(F)c4C(N)=O)c4cc[nH]c4n3)c(OC)cc2Cl)CC1`, the GI50 in the assay with U251 CNS was 1.68 µM; with OVCAR-4 ovarian it was 3.67 µM; in the assay with NCI-H23 lung, 3.49 µM; with MDA-MB-435, 1.35 µM; with MCF7 breast, 0.907 µM; with NCI/ADR-RES ovarian, 3.73 µM. Moreover, the GI50 in the assay on 786-0 renal was 3.65 µM; in the assay with K-562 leukemia, 0.62 µM; in the assay on A498 renal it was 2.95 µM; in the assay with UACC-62 melanoma it was 3.61 µM. The TGI with U251 CNS is 5.21 µM; with OVCAR-4 ovarian, 8.05 µM; in the assay on NCI-H23 lung it was 8.26 µM; with MDA-MB-435 it was 5.32 µM; with MCF7 breast, 3.97 µM; with NCI/ADR-RES ovarian it was 8.57 µM. Further, the TGI with 786-0 renal is 7.52 µM; in the assay on K-562 leukemia it was 1.73 µM; with A498 renal it was 6.47 µM; in the assay on UACC-62 melanoma, 7.09 µM.
As for `COc1ccc2c(c1)c(-c1ccc(-c3cn(C)c4ccc(OC)cc34)s1)cn2C`, the GI50 with U251 CNS is over 100 µM; in the assay with OVCAR-4 ovarian it was 90.2 µM; in the assay on NCI-H23 lung, over 100 µM; in the assay on MDA-MB-435 it was over 100 µM; with MCF7 breast it was over 100 µM; in the assay with NCI/ADR-RES ovarian, over 100 µM. Besides, the GI50 in the assay on 786-0 renal, with K-562 leukemia, in the assay on A498 renal and with UACC-62 melanoma was over 100 µM throughout. Further, the TGI in the assay on U251 CNS, with OVCAR-4 ovarian, in the assay on NCI-H23 lung, in the assay on MDA-MB-435, with MCF7 breast and in the assay on NCI/ADR-RES ovarian was over 100 µM each time. Also, the TGI in the assay with 786-0 renal, in the assay on K-562 leukemia, in the assay with A498 renal and with UACC-62 melanoma was over 100 µM each time.
As for `O=C(Nc1ccccc1/C=C/c1n[nH]c2ccccc12)c1ccccc1`, the GI50 was 1.72 µM in the assay with U251 CNS; 9.46 µM in the assay with OVCAR-4 ovarian; 2.2 µM in the assay with NCI-H23 lung; 1.97 µM with MDA-MB-435; 0.505 µM with MCF7 breast; 4.69 µM in the assay on NCI/ADR-RES ovarian. Besides, the GI50 in the assay on 786-0 renal is 12.6 µM; with K-562 leukemia, 3.47 µM; in the assay with A498 renal it was 1.42 µM; in the assay with UACC-62 melanoma, 2.88 µM. The TGI is 3.75 µM in the assay on U251 CNS; 24.7 µM in the assay with OVCAR-4 ovarian; 17.6 µM in the assay on NCI-H23 lung; 13.5 µM in the assay with MDA-MB-435; 13.2 µM with MCF7 breast; 20 µM in the assay on NCI/ADR-RES ovarian. Further, the TGI in the assay on 786-0 renal was found to be 26.7 µM; with K-562 leukemia, 12.6 µM; in the assay with A498 renal it was 3.21 µM; in the assay on UACC-62 melanoma it was 13 µM.
